Experimental data: BindingDB's records for doi:10.1002/cbdv.201000242 (East China University of Science and Technology, 2011)

How the values were obtained:
Test in all cases: Inhibitory Assay
Conditions in all cases: pH 6.5
[1] = molecular target: Receptor-type tyrosine-protein phosphatase F (Homo sapiens, UniProt P10586)
Description: (§1) Enzymatic activity of enzyme was evaluated using pNPP assay. Briefly, a reaction mixture (100 µL) containing 50 mM MOPS (pH 6.5), 2 mM pNPP and recombinant enzymes was monitored at 405 nm for 2 min at 30 °C.

[2] = molecular target: T1, Tyrosine-protein phosphatase non-receptor type 11 (Homo sapiens, UniProt Q06124)
T1 sequence (Q06124 whole entry): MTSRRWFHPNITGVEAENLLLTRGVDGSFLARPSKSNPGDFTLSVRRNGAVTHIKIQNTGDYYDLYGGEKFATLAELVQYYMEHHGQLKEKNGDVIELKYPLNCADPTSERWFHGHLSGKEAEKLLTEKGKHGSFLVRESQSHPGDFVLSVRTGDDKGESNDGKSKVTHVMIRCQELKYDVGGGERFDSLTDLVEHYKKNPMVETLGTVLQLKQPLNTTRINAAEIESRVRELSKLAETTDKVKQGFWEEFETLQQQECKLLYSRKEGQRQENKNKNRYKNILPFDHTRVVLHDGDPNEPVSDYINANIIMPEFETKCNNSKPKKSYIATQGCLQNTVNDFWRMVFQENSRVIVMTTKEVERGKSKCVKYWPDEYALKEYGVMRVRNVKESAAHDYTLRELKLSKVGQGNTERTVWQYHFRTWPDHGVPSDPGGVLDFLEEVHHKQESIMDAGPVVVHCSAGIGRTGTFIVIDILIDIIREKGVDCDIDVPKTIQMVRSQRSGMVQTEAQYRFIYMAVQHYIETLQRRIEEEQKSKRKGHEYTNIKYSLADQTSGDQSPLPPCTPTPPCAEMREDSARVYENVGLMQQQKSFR
Description: as §1

[3] = molecular target: Tyrosine-protein phosphatase non-receptor type 6 (Homo sapiens, UniProt P29350)
Description: as §1

[4] = molecular target: T2, Tyrosine-protein phosphatase non-receptor type 2 (Homo sapiens, UniProt P17706)
T2 sequence (P17706 whole entry): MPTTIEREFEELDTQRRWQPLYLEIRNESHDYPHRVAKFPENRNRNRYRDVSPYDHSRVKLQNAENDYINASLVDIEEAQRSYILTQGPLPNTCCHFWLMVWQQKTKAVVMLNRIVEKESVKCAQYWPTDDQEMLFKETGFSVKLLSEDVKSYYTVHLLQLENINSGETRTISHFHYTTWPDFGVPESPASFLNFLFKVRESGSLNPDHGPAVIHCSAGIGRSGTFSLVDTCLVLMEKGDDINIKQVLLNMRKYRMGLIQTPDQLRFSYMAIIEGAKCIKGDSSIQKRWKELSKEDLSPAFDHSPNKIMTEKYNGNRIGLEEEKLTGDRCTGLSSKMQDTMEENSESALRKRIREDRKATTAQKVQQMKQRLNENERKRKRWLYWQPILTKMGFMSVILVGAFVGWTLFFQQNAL
Description: as §1

[5] = molecular target: T3, Tyrosine-protein phosphatase non-receptor type 1 (Homo sapiens, UniProt P18031)
T3 sequence (P18031 whole entry): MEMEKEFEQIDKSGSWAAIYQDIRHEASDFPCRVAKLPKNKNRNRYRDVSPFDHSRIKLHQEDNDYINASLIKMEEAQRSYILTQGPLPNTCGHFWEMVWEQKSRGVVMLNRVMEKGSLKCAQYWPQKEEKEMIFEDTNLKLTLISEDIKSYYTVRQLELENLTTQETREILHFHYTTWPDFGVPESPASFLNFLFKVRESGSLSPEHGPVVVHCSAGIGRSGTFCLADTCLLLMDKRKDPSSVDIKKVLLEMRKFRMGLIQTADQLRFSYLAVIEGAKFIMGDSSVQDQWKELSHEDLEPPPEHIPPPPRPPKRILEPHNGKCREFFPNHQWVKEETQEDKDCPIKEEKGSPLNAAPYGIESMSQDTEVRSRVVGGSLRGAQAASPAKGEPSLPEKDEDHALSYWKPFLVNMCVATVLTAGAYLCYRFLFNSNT
Description: as §1

Receptor-type tyrosine-protein phosphatase F, sequence (P10586 whole entry): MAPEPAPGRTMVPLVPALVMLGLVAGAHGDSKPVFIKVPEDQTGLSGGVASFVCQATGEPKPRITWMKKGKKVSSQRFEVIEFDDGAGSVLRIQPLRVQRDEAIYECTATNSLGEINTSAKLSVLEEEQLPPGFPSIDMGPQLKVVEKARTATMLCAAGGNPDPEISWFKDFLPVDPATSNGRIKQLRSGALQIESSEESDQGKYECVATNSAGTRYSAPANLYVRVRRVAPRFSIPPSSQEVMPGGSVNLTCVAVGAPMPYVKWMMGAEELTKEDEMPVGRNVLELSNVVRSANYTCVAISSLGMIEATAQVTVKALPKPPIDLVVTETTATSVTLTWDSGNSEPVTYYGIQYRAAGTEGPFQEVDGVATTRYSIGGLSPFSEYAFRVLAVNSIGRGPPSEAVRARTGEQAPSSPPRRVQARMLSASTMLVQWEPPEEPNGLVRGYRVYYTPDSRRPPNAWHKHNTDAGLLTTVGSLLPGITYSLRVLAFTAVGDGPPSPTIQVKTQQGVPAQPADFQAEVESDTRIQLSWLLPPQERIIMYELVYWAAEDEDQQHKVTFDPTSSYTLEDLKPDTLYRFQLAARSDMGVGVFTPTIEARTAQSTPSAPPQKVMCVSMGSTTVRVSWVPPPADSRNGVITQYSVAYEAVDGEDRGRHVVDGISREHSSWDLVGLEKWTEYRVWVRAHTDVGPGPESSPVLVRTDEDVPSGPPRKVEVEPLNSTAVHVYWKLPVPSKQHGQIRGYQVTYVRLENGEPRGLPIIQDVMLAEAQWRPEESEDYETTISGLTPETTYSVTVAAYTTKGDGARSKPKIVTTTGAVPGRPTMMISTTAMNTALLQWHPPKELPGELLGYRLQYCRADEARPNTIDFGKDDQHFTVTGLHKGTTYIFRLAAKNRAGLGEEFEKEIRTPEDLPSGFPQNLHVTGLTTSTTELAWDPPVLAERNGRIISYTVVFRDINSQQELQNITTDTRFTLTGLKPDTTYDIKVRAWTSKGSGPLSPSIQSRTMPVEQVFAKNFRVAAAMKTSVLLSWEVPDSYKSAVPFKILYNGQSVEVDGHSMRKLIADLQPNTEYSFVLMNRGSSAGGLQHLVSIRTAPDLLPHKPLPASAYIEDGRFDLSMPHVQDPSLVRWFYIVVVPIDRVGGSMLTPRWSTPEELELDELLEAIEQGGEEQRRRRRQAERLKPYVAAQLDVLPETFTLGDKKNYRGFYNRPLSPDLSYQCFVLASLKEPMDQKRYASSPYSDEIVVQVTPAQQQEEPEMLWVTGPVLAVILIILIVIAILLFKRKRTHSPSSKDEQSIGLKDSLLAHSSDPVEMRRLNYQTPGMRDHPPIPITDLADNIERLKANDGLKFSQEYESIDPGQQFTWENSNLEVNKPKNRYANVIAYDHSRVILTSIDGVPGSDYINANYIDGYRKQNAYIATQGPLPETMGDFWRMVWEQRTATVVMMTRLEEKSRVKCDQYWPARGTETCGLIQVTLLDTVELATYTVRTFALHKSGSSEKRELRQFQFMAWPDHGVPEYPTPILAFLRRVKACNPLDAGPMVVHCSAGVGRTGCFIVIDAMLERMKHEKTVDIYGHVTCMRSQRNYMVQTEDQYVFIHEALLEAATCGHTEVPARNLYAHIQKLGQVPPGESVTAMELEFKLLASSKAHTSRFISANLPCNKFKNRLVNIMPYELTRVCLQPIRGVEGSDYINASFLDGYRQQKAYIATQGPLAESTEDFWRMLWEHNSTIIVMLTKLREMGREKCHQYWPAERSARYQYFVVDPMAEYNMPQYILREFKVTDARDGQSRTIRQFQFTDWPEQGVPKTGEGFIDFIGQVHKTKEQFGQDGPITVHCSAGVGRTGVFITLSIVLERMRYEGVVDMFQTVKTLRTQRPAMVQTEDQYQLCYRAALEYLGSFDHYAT
Tyrosine-protein phosphatase non-receptor type 6, sequence (P29350 whole entry): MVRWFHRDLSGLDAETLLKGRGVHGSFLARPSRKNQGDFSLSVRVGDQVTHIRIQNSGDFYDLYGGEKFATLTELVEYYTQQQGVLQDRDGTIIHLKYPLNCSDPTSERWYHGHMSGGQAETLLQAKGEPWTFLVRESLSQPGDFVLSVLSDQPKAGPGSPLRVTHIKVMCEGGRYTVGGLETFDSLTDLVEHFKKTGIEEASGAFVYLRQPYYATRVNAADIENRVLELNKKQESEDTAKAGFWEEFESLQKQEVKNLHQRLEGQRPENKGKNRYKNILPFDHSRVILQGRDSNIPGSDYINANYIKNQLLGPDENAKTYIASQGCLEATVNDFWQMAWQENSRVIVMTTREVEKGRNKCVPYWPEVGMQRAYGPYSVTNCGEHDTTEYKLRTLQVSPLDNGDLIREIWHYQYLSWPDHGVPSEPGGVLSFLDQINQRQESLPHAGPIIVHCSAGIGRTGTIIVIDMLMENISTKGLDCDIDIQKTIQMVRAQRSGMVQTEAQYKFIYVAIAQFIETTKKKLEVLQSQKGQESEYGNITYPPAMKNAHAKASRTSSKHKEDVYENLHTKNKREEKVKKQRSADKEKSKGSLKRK

| SMILES | IC50 [1] [µM] | IC50 [2] [µM] | IC50 [3] [µM] | IC50 [4] [µM] | IC50 [5] [µM] |
| --- | --- | --- | --- | --- | --- |
| CC(=O)OC[C@H]1O[C@H](n2cc(Cn3cnc4c(Cl)nc(N)nc43)nn2)[C@H](OC(C)=O)[C@@H](OC(C)=O)[C@@H]1OC(C)=O [2-Amino-6-chloro-9-{[1-(2,3,4,6-tetra-O-acetyl-b-d-glucopyranosyl)-1H-1,2,3-triazol-4-yl]methyl}-9H-purine (7)] | > 80 | > 80 | > 80 | > 80 | > 80 |
| C#CCn1cnc2c(Cl)nc(N)nc21 [6-Chloro-9-(prop-2-yn-1-yl)-9H-purin-2-amine (2)] | > 80 | > 80 | > 80 | > 80 | 232 |
| CC(=O)OC[C@H]1O[C@H](n2cc(CNc3nc(Cl)c4ncn(Cc5cn([C@H]6O[C@H](COC(C)=O)[C@@H](OC(C)=O)[C@H](OC(C)=O)[C@H]6OC(C)=O)nn5)c4n3)nn2)[C@H](OC(C)=O)[C@@H](OC(C)=O)[C@@H]1OC(C)=O [6-Chloro-9-{[1-(2,3,4,6-tetra-O-acetyl-b-d-glucopyranosyl)-1H-1,2,3-triazol-4-yl]methyl}-2-({[1-(2,3,4,6-tetra-O-acetyl-b-d-glucopyranosyl)-1H-1,2,3-triazol-4-yl]methyl}amino)-9H-purine (8)] | > 80 | > 80 | > 80 | > 80 | > 80 |
| CO[C@H]1O[C@H](Cn2cc(CNc3nc(Cl)c4ncn(Cc5cn(C[C@H]6O[C@H](OC)[C@H](OCc7ccccc7)[C@@H](OCc7ccccc7)[C@@H]6OCc6ccccc6)nn5)c4n3)nn2)[C@@H](OCc2ccccc2)[C@H](OCc2ccccc2)[C@H]1OCc1ccccc1 [6-Chloro-N,9-bis[(1-{[(2R,3R,4S,5R,6S)-3,4,5-tris(benzyloxy)-tetrahydro-6-methoxy-2H-pyran-2-yl]methyl}-1H-1,2,3-triazol-4-yl)methyl]-9H-purin-2-amine (13)] | > 80 | > 80 | > 80 | 11 | 2.2 |
| CO[C@H]1O[C@H](Cn2cc(CNc3nc(Cl)c4ncn(Cc5cn(C[C@H]6O[C@H](OC)[C@H](OCc7ccccc7)[C@@H](OCc7ccccc7)[C@H]6OCc6ccccc6)nn5)c4n3)nn2)[C@H](OCc2ccccc2)[C@H](OCc2ccccc2)[C@H]1OCc1ccccc1 [6-Chloro-N,9-bis[(1-{[(2R,3S,4S,5R,6S)-3,4,5-tris(benzyloxy)-tetrahydro-6-methoxy-2H-pyran-2-yl]methyl}-1H-1,2,3-triazol-4-yl)methyl]-9H-purin-2-amine (14)] | > 80 | > 80 | > 80 | 18 | 3.2 |
| C#CCNc1nc(Cl)c2ncn(CC#C)c2n1 [6-Chloro-N,9-di(prop-2-yn-1-yl)-9H-purin-2-amine (3)] | > 80 | > 80 | > 80 | > 80 | 75.7 |
| COc1nc(NCc2cn(C[C@H]3O[C@H](OC)[C@H](OCc4ccccc4)[C@@H](OCc4ccccc4)[C@H]3OCc3ccccc3)nn2)nc2c1ncn2Cc1cn(C[C@H]2O[C@H](OC)[C@H](OCc3ccccc3)[C@@H](OCc3ccccc3)[C@H]2OCc2ccccc2)nn1 [6-Methoxy-N,9-bis[ (1-{[(2R,3S,4S,5R,6S)-3,4,5-tris(benzyloxy)-tetrahydro-6-methoxy-2H-pyran-2-yl]methyl}-1H-1,2,3-triazol-4-yl)methyl]-9H-purin-2-amine (16)] | > 80 | 35.7 | 24.9 | 2.9 | 1.5 |
| COc1nc(NCc2cn(C[C@H]3O[C@H](OC)[C@H](OCc4ccccc4)[C@@H](OCc4ccccc4)[C@@H]3OCc3ccccc3)nn2)nc2c1ncn2Cc1cn(C[C@H]2O[C@H](OC)[C@H](OCc3ccccc3)[C@@H](OCc3ccccc3)[C@@H]2OCc2ccccc2)nn1 [6-Methoxy-N,9-bis[(1-{[(2R,3R,4S,5R,6S)-3,4,5-tris(benzyloxy)-tetrahydro-6-methoxy-2H-pyran-2-yl]methyl}-1H-1,2,3-triazol-4-yl)methyl]-9H-purin-2-amine (15)] | > 80 | > 80 | > 80 | 16.2 | 7.9 |
| CO[C@H]1O[C@H](Cn2cc(Cn3cnc4c(Cl)nc(N)nc43)nn2)[C@H](OCc2ccccc2)[C@H](OCc2ccccc2)[C@H]1OCc1ccccc1 [Methyl 6-{4-[(2-Amino-6-chloro-9H-purin-9-yl)methyl]-1H-1,2,3-triazol-1-yl}-2,3,4-tri-O-benzyl-6-deoxy-a-d-galactopyranoside (10)] | > 80 | > 80 | > 80 | 53.6 | 11.1 |
| CO[C@H]1O[C@H](Cn2cc(Cn3cnc4c(Cl)nc(N)nc43)nn2)[C@@H](OCc2ccccc2)[C@H](OCc2ccccc2)[C@H]1OCc1ccccc1 [Methyl 6-{4-[(2-Amino-6-chloro-9H-purin-9-yl)methyl]-1H-1,2,3-triazol-1-yl}-2,3,4-tri-O-benzyl-6-deoxy-a-d-glucopyranoside (9)] | > 80 | > 80 | > 80 | 29.9 | 7.2 |
| COc1nc(N)nc2c1ncn2Cc1cn(C[C@H]2O[C@H](OC)[C@H](OCc3ccccc3)[C@@H](OCc3ccccc3)[C@H]2OCc2ccccc2)nn1 [Methyl 6-{4-[(2-Amino-6-methoxy-9H-purin-9-yl)methyl]-1H-1,2,3-triazol-1-yl}-2,3,4-tri-O-benzyl-6-deoxy-a-d-galactopyranoside (12)] | > 80 | > 80 | > 80 | > 80 | > 80 |
| COc1nc(N)nc2c1ncn2Cc1cn(C[C@H]2O[C@H](OC)[C@H](OCc3ccccc3)[C@@H](OCc3ccccc3)[C@@H]2OCc2ccccc2)nn1 [Methyl 6-{4-[(2-Amino-6-methoxy-9H-purin-9-yl)methyl]-1H-1,2,3-triazol-1-yl}-2,3,4-tri-O-benzyl-6-deoxy-a-d-glucopyranoside (11)] | > 80 | > 80 | > 80 | > 80 | > 80 |
